# Columns and labels:
# Format in all cases: in vivo
# Zea mays [1] = assay: Pre-emergence test; details: 3 weeks after treatment
# Experimental: (§1) To evaluate their herbicidal activity, compounds according to the invention are tested using a representative range of plants:
# (§2) The pre-emergence tests involve spraying a liquid formulation of the compound onto the soil in which the seeds of the plant species mentioned above has recently been sown.
# (§3) The soil used in the tests is a prepared horticultural loam. The formulations used in the tests are prepared from solutions of the test compounds in acetone containing 0.4% by weight of an alkyl-phenol/ethylene oxide condensate available under the trade mark TRITON X-155. These acetone solutions are diluted with water and the resulting formulations applied at dosage levels corresponding to 0.013 kg, 0.025 kg, 0.100 kg or 0.400 kg of active material per hectare in a volume equivalent to 900 litres per hectare. In these tests untreated sown soil are used as controls. From 2 to 4 weeks after treatment, the tests are terminated and each pot is examined and rated according to the rating system set forth below: […]
# Galium aparine [2] = assay: Pre-emergence test; details: 3 weeks after treatment
# Experimental: as §1, §2, §3
# Matricaria inodora [3] = assay: Pre-emergence test; details: 3 weeks after treatment
# Experimental: as §1, §2, §3
# Alopecurus myosuroides [4] = assay: Pre-emergence test; details: 3 weeks after treatment
# Experimental: as §1, §2, §3
# Digitaria sanguinalis [5] = assay: Pre-emergence test; details: 3 weeks after treatment
# Experimental: as §1, §2, §3
# Orysa sativa [6] = assay: Pre-emergence test; details: 3 weeks after treatment
# Experimental: as §1, §2, §3
# Stellaria media [7] = assay: Pre-emergence test; details: 3 weeks after treatment
# Experimental: as §1, §2, §3
# Glycine max [8] = assay: Pre-emergence test; details: 0.400 kg/ha, 3 weeks after treatment
# Experimental: as §1, §2, §3
# Ipomoea hederacea [9] = assay: Pre-emergence test; details: 0.400 kg/ha, 3 weeks after treatment
# Experimental: as §1, §2, §3
# Cassia obtusifolia [10] = assay: Pre-emergence test; details: 3 weeks after treatment
# Experimental: as §1, §2, §3
# Triticum aestivum [11] = assay: Pre-emergence test; details: 3 weeks after treatment
# Experimental: as §1, §2, §3
# Abutilon theophrasti [12] = assay: Pre-emergence test; details: 0.400 kg/ha, 3 weeks after treatment
# Experimental: as §1, §2, §3
# Lamium purpureum = assay: Pre-emergence test; details: 3 weeks after treatment
# Experimental: as §1, §2, §3
# Echinochloa crus-galli [13] = assay: Pre-emergence test; details: 3 weeks after treatment
# Experimental: as §1, §2, §3
# Setaria viridis [14] = assay: Pre-emergence test; details: 3 weeks after treatment
# Experimental: as §1, §2, §3
# Zea mays [15] = assay: Post-emergence herbicidal activity test; details: 2-4 weeks after treatment
# Experimental: as §1
# (§4) These acetone solutions are diluted with water and the resulting formulations applied at dosage levels equivalent of about 0.025 to 0. 4 kg per hectare of test compound per pot. After spraying the plants are placed on greenhouse benches and are cared for in the usual manner, commensurate with conventional greenhouse practices. From 2 to 4 weeks after treatment, the seedling plants are examined and rated according to the rating system provided above.
# Galium aparine [16] = assay: Post-emergence herbicidal activity test; details: 2-4 weeks after treatment
# Experimental: as §1, §4
# Matricaria inodora [17] = assay: Post-emergence herbicidal activity test; details: 2-4 weeks after treatment
# Experimental: as §1, §4
# Alopecurus myosuroides [18] = assay: Post-emergence herbicidal activity test; details: 2-4 weeks after treatment
# Experimental: as §1, §4
# Digitaria sanguinalis [19] = assay: Post-emergence herbicidal activity test; details: 2-4 weeks after treatment
# Experimental: as §1, §4
# Orysa sativa [20] = assay: Post-emergence herbicidal activity test; details: 2-4 weeks after treatment
# Experimental: as §1, §4
# Stellaria media [21] = assay: Post-emergence herbicidal activity test; details: 2-4 weeks after treatment
# Experimental: as §1, §4
# Glycine max [22] = assay: Post-emergence herbicidal activity test; details: 2-4 weeks after treatment
# Experimental: as §1, §4
# Ipomoea hederacea [23] = assay: Post-emergence herbicidal activity test; details: 2-4 weeks after treatment
# Experimental: as §1, §4
# Cassia obtusifolia [24] = assay: Post-emergence herbicidal activity test; details: 2-4 weeks after treatment
# Experimental: as §1, §4
# Triticum aestivum [25] = assay: Post-emergence herbicidal activity test; details: 2-4 weeks after treatment
# Experimental: as §1, §4
# Abutilon theophrasti [26] = assay: Post-emergence herbicidal activity test; details: 2-4 weeks after treatment
# Experimental: as §1, §4
# Echinochloa crus-galli [27] = assay: Post-emergence herbicidal activity test; details: 2-4 weeks after treatment
# Experimental: as §1, §4
# Setaria viridis [28] = assay: Post-emergence herbicidal activity test; details: 2-4 weeks after treatment
# Experimental: as §1, §4
smiles,measurement,setting,value
Cn1nc(C(F)(F)F)cc1Oc1cccc(C#Cc2ccccc2)n1 [Example 31],Assessment (pre-emergence application) ZEAMX,Zea mays [1]; 0.025 kg/ha,1 (1-Trace effect)
same,Assessment (pre-emergence application) ZEAMX,Zea mays [1]; 0.100 kg/ha,2 (2-Slight effect)
same,Assessment (pre-emergence application) ZEAMX,Zea mays [1]; 0.400 kg/ha,2 (2-Slight effect)
same,Assessment (pre-emergence application) GALAP,Galium aparine [2]; 0.025 kg/ha,1 (1-Trace effect)
same,Assessment (pre-emergence application) GALAP,Galium aparine [2]; 0.100 kg/ha,2 (2-Slight effect)
same,Assessment (pre-emergence application) MATIN,Matricaria inodora [3]; 0.025 kg/ha,2 (2-Slight effect)
same,Assessment (pre-emergence application) MATIN,Matricaria inodora [3]; 0.100 kg/ha,6 (6-Herbicidal effect)
same,Assessment (pre-emergence application) MATIN,Matricaria inodora [3]; 0.400 kg/ha,7 (7-Good herbicidal effect)
same,Assessment (pre-emergence application) ALOMY,Alopecurus myosuroides [4]; 0.025 kg/ha,0 (0-No effect)
same,Assessment (pre-emergence application) ALOMY,Alopecurus myosuroides [4]; 0.100 kg/ha,1 (1-Trace effect)
same,Assessment (pre-emergence application) ALOMY,Alopecurus myosuroides [4]; 0.400 kg/ha,3 (3-Moderate effect)
same,Assessment (pre-emergence application) DIGSA,Digitaria sanguinalis [5]; 0.025 kg/ha,2 (2-Slight effect)
same,Assessment (pre-emergence application) DIGSA,Digitaria sanguinalis [5]; 0.100 kg/ha,5 (5-Definite injury)
same,Assessment (pre-emergence application) DIGSA,Digitaria sanguinalis [5]; 0.400 kg/ha,8 (8-Approaching complete kill)
same,Assessment (pre-emergence application) ORYSA,Orysa sativa [6]; 0.025 kg/ha,0 (0-No effect)
same,Assessment (pre-emergence application) ORYSA,Orysa sativa [6]; 0.100 kg/ha,1 (1-Trace effect)
same,Assessment (pre-emergence application) ORYSA,Orysa sativa [6]; 0.400 kg/ha,1 (1-Trace effect)
same,Assessment (pre-emergence application) STEME,Stellaria media [7]; 0.025 kg/ha,2 (2-Slight effect)
same,Assessment (pre-emergence application) STEME,Stellaria media [7]; 0.100 kg/ha,8 (8-Approaching complete kill)
same,Assessment (pre-emergence application) STEME,Stellaria media [7]; 0.400 kg/ha,9 (9-Complete kill)
same,Assessment (pre-emergence application) GLXMA,Glycine max [8],1 (1-Trace effect)
same,Assessment (pre-emergence application) IPOHE,Ipomoea hederacea [9],2 (2-Slight effect)
same,Assessment (pre-emergence application) CASOB,Cassia obtusifolia [10]; 0.025 kg/ha,1 (1-Trace effect)
same,Assessment (pre-emergence application) CASOB,Cassia obtusifolia [10]; 0.100 kg/ha,3 (3-Moderate effect)
same,Assessment (pre-emergence application) CASOB,Cassia obtusifolia [10]; 0.400 kg/ha,3 (3-Moderate effect)
same,Assessment (pre-emergence application) TRZWA,Triticum aestivum [11]; 0.025 kg/ha,0 (0-No effect)
same,Assessment (pre-emergence application) TRZWA,Triticum aestivum [11]; 0.100 kg/ha,0 (0-No effect)
same,Assessment (pre-emergence application) TRZWA,Triticum aestivum [11]; 0.400 kg/ha,0 (0-No effect)
same,Assessment (pre-emergence application) ABUTH,Abutilon theophrasti [12],2 (2-Slight effect)
same,Assessment (pre-emergence application) LAMPU,Lamium purpureum; 0.025 kg/ha,7 (7-Good herbicidal effect)
same,Assessment (pre-emergence application) LAMPU,Lamium purpureum; 0.100 kg/ha,8 (8-Approaching complete kill)
same,Assessment (pre-emergence application) LAMPU,Lamium purpureum; 0.400 kg/ha,8 (8-Approaching complete kill)
same,Assessment (pre-emergence application) ECHCG,Echinochloa crus-galli [13]; 0.025 kg/ha,0 (0-No effect)
same,Assessment (pre-emergence application) ECHCG,Echinochloa crus-galli [13]; 0.100 kg/ha,2 (2-Slight effect)
same,Assessment (pre-emergence application) ECHCG,Echinochloa crus-galli [13]; 0.400 kg/ha,5 (5-Definite injury)
same,Assessment (pre-emergence application) SETVI,Setaria viridis [14]; 0.025 kg/ha,2 (2-Slight effect)
same,Assessment (pre-emergence application) SETVI,Setaria viridis [14]; 0.100 kg/ha,6 (6-Herbicidal effect)
same,Assessment (pre-emergence application) SETVI,Setaria viridis [14]; 0.400 kg/ha,8 (8-Approaching complete kill)
same,Post-emergence application ZEAMX,Zea mays [15]; 0.100 kg/ha,2 (2-Slight effect)
same,Post-emergence application ZEAMX,Zea mays [15]; 0.400 kg/ha,3 (3-Moderate effect)
same,Post-emergence application GALAP,Galium aparine [16]; 0.100 kg/ha,4 (4-Injury)
same,Post-emergence application GALAP,Galium aparine [16]; 0.400 kg/ha,6 (6-Herbicidal effect)
same,Post-emergence application MATIN,Matricaria inodora [17]; 0.100 kg/ha,3 (3-Moderate effect)
same,Post-emergence application MATIN,Matricaria inodora [17]; 0.400 kg/ha,4 (4-Injury)
same,Post-emergence application ALOMY,Alopecurus myosuroides [18]; 0.100 kg/ha,3 (3-Moderate effect)
same,Post-emergence application ALOMY,Alopecurus myosuroides [18]; 0.400 kg/ha,5 (5-Definite injury)
same,Post-emergence application DIGSA,Digitaria sanguinalis [19]; 0.100 kg/ha,4 (4-Injury)
same,Post-emergence application DIGSA,Digitaria sanguinalis [19]; 0.400 kg/ha,4 (4-Injury)
same,Post-emergence application ORYSA,Orysa sativa [20]; 0.100 kg/ha,1 (1-Trace effect)
same,Post-emergence application ORYSA,Orysa sativa [20]; 0.400 kg/ha,2 (2-Slight effect)
same,Post-emergence application STEME,Stellaria media [21]; 0.100 kg/ha,5 (5-Definite injury)
same,Post-emergence application STEME,Stellaria media [21]; 0.400 kg/ha,6 (6-Herbicidal effect)
same,Post-emergence application GLXMA,Glycine max [22]; 0.100 kg/ha,4 (4-Injury)
same,Post-emergence application GLXMA,Glycine max [22]; 0.400 kg/ha,4 (4-Injury)
same,Post-emergence application IPOHE,Ipomoea hederacea [23]; 0.100 kg/ha,7 (7-Good herbicidal effect)
same,Post-emergence application IPOHE,Ipomoea hederacea [23]; 0.400 kg/ha,8 (8-Approaching complete kill)
same,Post-emergence application CASOB,Cassia obtusifolia [24]; 0.100 kg/ha,6 (6-Herbicidal effect)
same,Post-emergence application CASOB,Cassia obtusifolia [24]; 0.400 kg/ha,6 (6-Herbicidal effect)
same,Post-emergence application TRZWA,Triticum aestivum [25]; 0.100 kg/ha,1 (1-Trace effect)
same,Post-emergence application TRZWA,Triticum aestivum [25]; 0.400 kg/ha,2 (2-Slight effect)
same,Post-emergence application ABUTH,Abutilon theophrasti [26]; 0.100 kg/ha,3 (3-Moderate effect)
same,Post-emergence application ABUTH,Abutilon theophrasti [26]; 0.400 kg/ha,5 (5-Definite injury)
same,Post-emergence application ECHCG,Echinochloa crus-galli [27]; 0.100 kg/ha,3 (3-Moderate effect)
same,Post-emergence application ECHCG,Echinochloa crus-galli [27]; 0.400 kg/ha,5 (5-Definite injury)
same,Post-emergence application SETVI,Setaria viridis [28]; 0.100 kg/ha,5 (5-Definite injury)
same,Post-emergence application SETVI,Setaria viridis [28]; 0.400 kg/ha,7 (7-Good herbicidal effect)

# — US6872690B2, “Herbicidal 2-alkynyl-pyri (mi) dines” (WYETH, priority 2001, dated 2005)
